Experiments:
Type in all cases: in vivo, rats
[1] = test system: streptozotocin (STZ) induced diabetes animal model; experiment: Urine volume and glyceuira (Benedict reagent); set-up: key to Glyceuria: (+++) abundant; (++) moderate; (+) mild; (−) complete absence; settings: H.G. animals; standard drug
Protocol: (§1) Before utilizing the test drug for human consumption the pre-clinical safety and efficacy profile of single plant candidate extract as well as in combined form was conducted following standard norms. The biological property of test formulation was validated in streptozotocin (STZ) induced diabetes animal model which also helped in evaluation of vascular complications caused due to diabetes. The effect of test drug was assessed on glucose levels, insulin level, glycosylated hemoglobin, and pro-inflammatory cytokines, and the most important bio-marker neopterin including various neuro-psychological assessments. The mechanism based study clearly indicated the neopterin decreasing potential of test formulation which exerted neuro-protective activity, better glycemic control, anti-atherosclerotic, anti-inflammatory, anti-oxidant effects in STZ induced diabetes among the animals. Further, its therapeutic activity has also been validated in neurogenic dementia and other cognitive deficits associated with diabetes mellitus.
Urine was collected from each group separately by using animal metabolic cage, volume of urine collected was measured and glucose executed in urine was detected by Benedict reagent. In which 1 ml of urine and 3 ml of B.R. are added and boiled for 5 minute. The change in color was observed as Red (+++), green coloration (++) yellow coloration (+) and unchanged (−).

[2] = test system: streptozotocin (STZ) induced diabetes animal model; experiment: Anti-hyperglycemic activity, weekly assessment of plasma glucose; settings: H.G. animals, standard drug
Protocol: as §1
Low dose=100 mg/kg; High dose=200 mg/kg

Effect on body weight = settings: H.G. animals, standard drug, in g (unit assumed)
Protocol: Before utilizing the test drug for human consumption the pre-clinical safety and efficacy profile of single plant candidate extract as well as in combined form was conducted following standard norms. […] The effect of test drug was assessed on glucose levels, insulin level, glycosylated hemoglobin, and pro-inflammatory cytokines, and the most important bio-marker neopterin including various neuro-psychological assessments.

Insulin = Insulin secretagogues property in diabetic animals; settings: H.G. animals; standard drug
Protocol: as §1

F,1-6 bisphosphate = experiment: Regulation of key enzymes in gluconeogenesis: F,1-6 bisphosphate; settings: H.G. animals; standard drug
Protocol: as §1

Neopterin = Neopterin decreasing property in experimental diabetes; settings: H.G. animals, standard drug
Protocol: as §1

Free Fatty Acid (FFA) = experiment: Reduction in free fatty acids; settings: H.G. animals; standard drug
Protocol: as §1, with “mellitus. Reduction in Free Fatty Acids Following Test Formulation Treatment Treated with test formulation reported FFA elevation in tissues and plasma of diabetic rats” for “mellitus.”

Adipocyte = experiment: Reduction in hypertrophy of adipocyte; settings: H.G. animals; standard drug
Protocol: as §1, with “mellitus. Reduction in hypertrophy of Adipocyte on Treated with Test Formulation” for “mellitus.”

TBARS = experiment: Attenuation of oxidative stress: TBARS formation; set-up: TBARS formation, Brain / TBARS formation, Heart / TBARS formation, Liver / TBARS formation, Kidney: unit not given here; settings: H.G. animals; standard drug
Protocol: as §1, with “mellitus. Attenuation of Oxidative Stress Following Treatment with Test Formation—Reduction in TBARS Formation” for “mellitus.”

Hemoglobin = experiment: Glycation of hemoglobin; settings: H.G. animals; standard drug
Protocol: Before utilizing the test drug for human consumption the pre-clinical safety and efficacy profile of single plant candidate extract as well as in combined form was conducted following standard norms. […] The effect of test drug was assessed on glucose levels, insulin level, glycosylated hemoglobin, and pro-inflammatory cytokines, and the most important bio-marker neopterin including various neuro-psychological assessments. […] Aldose Reductase Activity and Glycation of Hemoglobin Following Test Formulation Treatment

Creatinine, Urea = experiment: Effect on renal function; settings: H.G. animals; standard drug
Protocol: as §1, with “mellitus. Effect of Test Formulation on Renal Function” for “mellitus.”

Structure (SMILES)	Glyceuria [1]	Urine volume [1] [mL]	Plasma glucose ([2]; 7th Day, in mg/dL)	Plasma glucose ([2]; 14th Day, in mg/dL)	Body weight (Effect on body weight; 0th Day)	Insulin (Insulin) [pg/L]	F,1-6 bisphosphate, Kidney (F,1-6 bisphosphate)	F,1-6 bisphosphate, Liver (F,1-6 bisphosphate)	Neopterin (Neopterin; 7th day) [nmol/L]	Neopterin (Neopterin; 14th Day) [nmol/L]	Free Fatty Acid (FFA), Heart (Free Fatty Acid (FFA))	Free Fatty Acid (FFA), Liver (Free Fatty Acid (FFA))	Free Fatty Acid (FFA), Plasma (Free Fatty Acid (FFA)) [mg/L]	Adipocyte cell area (Adipocyte) [μm]	TBARS formation, Brain (TBARS)	TBARS formation, Heart (TBARS)	TBARS formation, Kidney (TBARS)	TBARS formation, Liver (TBARS)	TBARS formation, Pancrease (TBARS)	Glycated Hb (Hemoglobin)	also measured
CCc1ccc(CCOc2ccc(CC3SC(=O)NC3=O)cc2)nc1 (centres unmarked) [Pioglitazone]	++	13.23 ± 1.18	153.83 ± 15.68	140.17 ± 6.25	200.00 ± 4.65	105.31 ± 9.10	31.78 ± 3.71 μm/min/mg of protein	44.33 ± 4.29 μm/min/mg of protein	9.13 ± 2.10	8.02 ± 2.01	379.17 ± 22.06 mg/100 g of tissue	522.67 ± 37.75 mg/100 g of tissue	69.00 ± 5.60	136.31 ± 13.53	52.66 ± 3.55	61.83 ± 4.52	56.33 ± 7.93	82.50 ± 2.84	87.67 ± 7.41	0.53 ± 0.07 mg/g of Hb	Plasma glucose ([2]; 0th Day): 170.17 ± 12.55; Body weight (Effect on body weight; 7th Day): 178.80 ± 4.00; Body weight (Effect on body weight; 14th Day): 169.13 ± 2.84; Hb (Hemoglobin): 10.09 ± 1.85 g/dL; Creatinine (Creatinine, Urea): 3.20 ± 0.09 mg/dL; Urea (Creatinine, Urea): 48.00 ± 2.00 mg/dL
CN(C)C(=N)N=C(N)N [Metformin]	+	8.95 ± 1.70	148.67 ± 8.85	118.83 ± 8.75	207.25 ± 6.44	109.24 ± 12.13	29.67 ± 5.60 μm/min/mg of protein	34.59 ± 4.90 μm/min/mg of protein	8.90 ± 1.87	9.11 ± 1.39	446.83 ± 39.65 mg/100 g of tissue	777.83 ± 53.14 mg/100 g of tissue	87.67 ± 7.68	146.24 ± 10.85	48.08 ± 3.42	62.33 ± 4.81	56.74 ± 5.07	80.83 ± 9.17	83.17 ± 7.24	0.44 ± 0.04 mg/g of Hb	Plasma glucose ([2]; 0th Day, in mg/dL): 169.83 ± 10.03; Hb (Hemoglobin): 10.06 ± 0.06 g/dL; Creatinine (Creatinine, Urea): 3.18 ± 0.05 mg/dL; Urea (Creatinine, Urea): 45.45 ± 5.25 mg/dL

Source: patent publication US10149879B2 (priority 2014, dated 2018)
